Assay results reported in the NIST ThermoML archive (doi:10.1016/j.tca.2005.11.041).
Numbers after ± are expanded uncertainties.

Experiment: excess molar enthalpy (molar enthalpy of mixing); xn = mol fraction of the nth substance listed
Conditions: Liquid, Flow calorimetry

COC=O [methyl methanoate] + CCC(C)O
excess molar enthalpy [kcal/mol], 298.15 K
Conditions	5000 kPa	10000 kPa
x1 = 0.0501	0.1085 ± 0.00103	–
x1 = 0.0996	–	0.2144 ± 0.00184
x1 = 0.1	0.2057 ± 0.00177	–
x1 = 0.1496	0.2851 ± 0.00239	–
x1 = 0.15	–	0.2904 ± 0.00239
x1 = 0.1994	–	0.3556 ± 0.00287
x1 = 0.2	0.3517 ± 0.00287	–
x1 = 0.2493	–	0.4085 ± 0.00335
x1 = 0.2496	0.4039 ± 0.00335	–
x1 = 0.2997	–	0.4503 ± 0.00359
x1 = 0.2999	0.4445 ± 0.00359	–
x1 = 0.3504	–	0.4797 ± 0.00382
x1 = 0.3508	0.4745 ± 0.00382	–
x1 = 0.3993	–	0.4997 ± 0.00406
x1 = 0.4004	0.4926 ± 0.00406	–
x1 = 0.4503	0.5028 ± 0.00406	–
x1 = 0.4504	–	0.5095 ± 0.00406
x1 = 0.4992	–	0.5099 ± 0.00406
x1 = 0.5003	0.5039 ± 0.00406	–
x1 = 0.5501	–	0.5012 ± 0.00406
x1 = 0.5505	0.4958 ± 0.00406	–
x1 = 0.6006	0.4793 ± 0.00382	0.4852 ± 0.00406
x1 = 0.6505	0.4572 ± 0.00382	–
x1 = 0.6508	–	0.4587 ± 0.00382
x1 = 0.7002	0.4214 ± 0.00335	–
x1 = 0.7003	–	0.4234 ± 0.00359
x1 = 0.7491	–	0.3804 ± 0.00311
x1 = 0.7494	0.3806 ± 0.00311	–
x1 = 0.7997	–	0.3235 ± 0.00263
x1 = 0.8004	0.3283 ± 0.00263	–
x1 = 0.8494	–	0.2584 ± 0.0022
x1 = 0.8509	0.2606 ± 0.0022	–
x1 = 0.9006	0.1836 ± 0.0016	–
x1 = 0.9008	–	0.1743 ± 0.00153
x1 = 0.9495	0.09928 ± 0.000956	–

COC=O [methyl methanoate] + CCCO
excess molar enthalpy [kcal/mol]
Conditions	298.15 K	333.15 K
5000 kPa, x1 = 0.0399	0.0784 ± 0.000789	–
5000 kPa, x1 = 0.0788	0.1484 ± 0.00134	–
5000 kPa, x1 = 0.1201	0.2123 ± 0.00184	–
5000 kPa, x1 = 0.1621	0.2668 ± 0.00225	–
5000 kPa, x1 = 0.2066	0.3134 ± 0.00263	–
5000 kPa, x1 = 0.2501	0.3511 ± 0.00287	–
5000 kPa, x1 = 0.2944	0.38 ± 0.00311	–
5000 kPa, x1 = 0.3414	0.4016 ± 0.00335	–
5000 kPa, x1 = 0.3893	0.4175 ± 0.00335	–
5000 kPa, x1 = 0.4381	0.4248 ± 0.00359	–
5000 kPa, x1 = 0.4878	0.4274 ± 0.00359	–
5000 kPa, x1 = 0.5386	0.4217 ± 0.00335	–
5000 kPa, x1 = 0.5903	0.4078 ± 0.00335	–
5000 kPa, x1 = 0.6452	0.3837 ± 0.00311	–
5000 kPa, x1 = 0.699	0.3526 ± 0.00287	–
5000 kPa, x1 = 0.7562	0.3063 ± 0.00263	–
5000 kPa, x1 = 0.8146	0.2533 ± 0.00215	–
5000 kPa, x1 = 0.8743	0.1849 ± 0.00163	–
5000 kPa, x1 = 0.9376	0.09713 ± 0.000932	–
10000 kPa, x1 = 0.0398	0.08184 ± 0.000813	–
10000 kPa, x1 = 0.0403	–	0.0804 ± 0.000813
10000 kPa, x1 = 0.0786	0.1545 ± 0.00139	–
10000 kPa, x1 = 0.0788	–	0.1602 ± 0.00143
10000 kPa, x1 = 0.1197	0.2204 ± 0.00189	–
10000 kPa, x1 = 0.1205	–	0.2359 ± 0.00201
10000 kPa, x1 = 0.1616	0.2756 ± 0.00232	–
10000 kPa, x1 = 0.1629	–	0.3022 ± 0.00263
10000 kPa, x1 = 0.2061	0.3245 ± 0.00263	0.3577 ± 0.00287
10000 kPa, x1 = 0.2495	0.3621 ± 0.00311	–
10000 kPa, x1 = 0.25	–	0.4038 ± 0.00335
10000 kPa, x1 = 0.2937	0.3913 ± 0.00311	–
10000 kPa, x1 = 0.2948	–	0.4424 ± 0.00359
10000 kPa, x1 = 0.3404	–	0.4715 ± 0.00382
10000 kPa, x1 = 0.3407	0.4134 ± 0.00335	–
10000 kPa, x1 = 0.3868	–	0.4918 ± 0.00406
10000 kPa, x1 = 0.3885	0.4284 ± 0.00359	–
10000 kPa, x1 = 0.437	–	0.5043 ± 0.00406
10000 kPa, x1 = 0.4373	0.436 ± 0.00359	–
10000 kPa, x1 = 0.4853	–	0.5087 ± 0.00406
10000 kPa, x1 = 0.487	0.4358 ± 0.00359	–
10000 kPa, x1 = 0.5374	–	0.5014 ± 0.00406
10000 kPa, x1 = 0.5377	0.428 ± 0.00359	–
10000 kPa, x1 = 0.5895	0.4126 ± 0.00335	–
10000 kPa, x1 = 0.5907	–	0.4864 ± 0.00406
10000 kPa, x1 = 0.6444	0.3875 ± 0.00311	–
10000 kPa, x1 = 0.645	–	0.4589 ± 0.00382
10000 kPa, x1 = 0.6983	0.3565 ± 0.00287	–
10000 kPa, x1 = 0.7005	–	0.4193 ± 0.00335
10000 kPa, x1 = 0.7556	0.3115 ± 0.00263	–
10000 kPa, x1 = 0.7572	–	0.3654 ± 0.00311
10000 kPa, x1 = 0.8141	0.2558 ± 0.00217	–
10000 kPa, x1 = 0.8151	–	0.3029 ± 0.00263
10000 kPa, x1 = 0.8739	0.1848 ± 0.00163	–
10000 kPa, x1 = 0.8743	–	0.2236 ± 0.00191
10000 kPa, x1 = 0.9347	–	0.1235 ± 0.00115
10000 kPa, x1 = 0.9374	0.09637 ± 0.000932	–
